According to patent publication US10179122B2, “Use of melatonin” (priority 2011, dated 2019):

Test system: hangover symptoms after consumption of alcoholic beverages
Experiment: Hangover symptoms after alcohol consumption, blinded subjects given a sublingual melatonin strip before sleep
Type: in vivo, human
Protocol: Subjects were blind to all the experimental treatments.
A person was fed alcoholic beverages containing ethyl alcohol until the blood alcohol concentration reached 310 mg/dL at a time of 10 pm. Next, the person drank 1 l of water and immediately after that was administered a sublingual strip comprising 2.5 mg of melatonin in non-retard form. After that the person went to sleep. […] This experiment was repeated with 20 other persons with the same effect.
For comparison, the same experiment was conducted with administration of the sublingual strip without melatonin as a placebo. 19 out of 20 persons reported severe typical hangover symptoms like headaches.

SMILES: COc1ccc2[nH]cc(CCNC(C)=O)c2c1 [melatonin]
- typical hangover symptoms after 8 h of physiologic sleep (one person, blood alcohol concentration 310 mg/dL at 10 pm, 1 l of water, then sublingual strip with 2.5 mg melatonin in non-retard form, assessed after 8 h sleep): did not suffer from any typical hangover symptoms
- typical hangover symptoms after 8 h of physiologic sleep (experiment repeated) (repeated with 20 other persons, same protocol (310 mg/dL, 1 l of water, sublingual strip with 2.5 mg melatonin in non-retard form, 8 h sleep)): same effect
